Consider 1 substance from patent US20220196635A1, “Fibrosis Assay” (Georgia Tech Research Corporation, priority 2020, published 2022).

What all share (assay type): cell-based
The test system of experiment [1] is normal human lung fibroblasts (NHLF). The experiment can be described thus: Picrosirius red histology of contracted cell-ECM spheroids (mean fluorescence intensity). The following applies: different TGF-β1 conditions and control, 12 days of culture. The protocol:
Contracted cell-ECM spheroids were harvested after 9-12 days of culture. These structures were prepared for histology, stained, and imaged as previously described for cultured spheroids. Briefly, the spheroids were washed with PBS and fixed in 4% paraformaldehyde (Alfa Aesar) for 1 hour at room temperature. The structures were stained with 0.5% methylene blue solution in PBS for 10 minutes at room temperature to aid in visualization during histology. Samples were placed in a cryomold containing optimal cutting temperature (OCT) compound, and flash frozen in cooled isopentane. 10 um sections were obtained using a CryoStar NX70 cryostat (Thermo Fisher Scientific).
Upon warming to room temperature, the sections were washed with PBS, permeabilized with 0.2% Triton-X 100, and blocked for 1 hour at room temperature with 4% bovine serum albumin (BSA) (Millipore Sigma). Sections were stained for 30 min at room temperature with Sirius red (0.1% of Sirius red in saturated aqueous picric acid), as previously described for collagen bundle staining. The samples were then washed with PBS, stained with DAPI for 15 minutes at room temperature, and coverslipped. […] Fluorescence was detected using Texas Red channel settings as previously described. Mean fluorescence intensity was quantified in ImageJ as the average pixel intensity within the sections.

Experiment [2] shares this test system. As to the kind of experiment: mRNA quantification by qPCR in fibrin remodeling assay. Here is the method:
RNA extraction and qPCR: Cells from 12 wells at the indicated time points were pooled together per condition and lysed with 350 μl of RLT lysis buffer. RNA was extracted using a RNeasy Mini Kit (Qiagen, #74104) and was performed according to the manufacturer's instructions. RNA sample concentration was measured using a NanoDrop OneC Spectrophotometer (Thermo Fisher Scientific). A High-Capacity RNA-to-cDNA Kit (Applied Biosystems, #4387406) was used for reverse transcription; 400 ng of RNA for each sample was mixed with 10 μl primer, 1 μl reverse transcriptase enzyme and nuclease-free water to bring the final reaction volume to 20 μl. The reaction was performed for 60 minutes at 37° C., followed by 5 minutes at 95° C. using a Veriti Thermal Cycler (Applied Biosystems). qPCR was performed using a QuantStudio 3 Real-Time PCR System (Applied Biosystems). Each reaction consisted of 1 μl cDNA, 10 μl TaqMan Fast advanced master mix (Applied Biosystems, #4444556), 1 μl primer, and 6 μl nuclease-free water. TaqMan primers (Applied Biosystems) for smooth muscle actin (ACTA2, Hs00426835_g1), plasminogen activator (PLAT, Hs00263492_m1), Plasminogen activator inhibitor-1 (SERPINE1, Hs00167155_m1), collagen type I (COL1A1, Hs00164004_m1), plasminogen activator (PLAU, Hs01547054_m1), and Ki67 (MKI67, Hs01032443_m1) were utilized. The QuantStudio 3 was programmed with a 2-minute hold at 95° C., followed by 40 cycles of 95° C. for 1 second and 60° C. for 20 seconds. Each sample was run with biological triplicates. The relative gene expression was calculated using the […], with glyceraldehyde-3-phosphate dehydrogenase as the housekeeping gene (GAPDH, Hs02786624_g1). Fold changes were normalized with respect to the time zero timepoint with no TGF-β1 stimulation and are reported as the mean with the error bars representing the minimum and maximum values.

Experiment [3] deals with human primary lung fibroblasts (NHLF, IPF) in fibrin micro-scaffolds. As to the kind of experiment: Contracting scar-in-a-drop fibroplasia assay (final projected area of cell-ECM spheroids). The protocol:
Human primary lung fibroblasts were used in all experiments presented in this paper. Unless otherwise noted, experiments utilized normal human lung fibroblasts (NHLF B lot #0000580583; Lonza) from a person with a history of smoking. For experiments evaluating donor variability, the following cells were utilized: NHLF A (NHLF lot #0000608197; Lonza) from a person, IPF A (IPF lot #0000627840; Lonza) from a person, and IPF B (IPF lot #6F5002; Lonza) from a person. All cells were cultured in fibroblast growth media (FGM; Lonza). Cells were passaged at 80-90% confluence and were sub-cultured in 1:3 ratios by trypsinization. When at the desired confluence, cells were washed with PBS and 0.05% trypsin solution was added to the flask. Cells were incubated for 2 min, and then harvested and centrifuged ([…], 5 min) in a conical tube. The supernatant was aspirated and the cell pellet was re-suspended in FBS-free culture media. When used in fibrin degradation experiments, cells were re-suspended at 2× the final desired concentration (2500 cells/ul unless otherwise indicated). To promote collagen production and contraction in addition to fibrin degradation, serum (bovine or human) were added at 2% or higher up to about 10%. Higher cell densities (about 2500 cells/ul and higher up to about 10,000 cells/ul) also promote collagen production. All experiments were conducted with cells at or below passage 8 except for high passage experiments conducted at passage 12. In all experiments, media was changed every 48 hours and any media additives (plasminogen, TGF-β1, drugs, etc.,) were included.
ATPS printing of fibrin micro-scaffolds has previously described above. Briefly, working solutions of PEG with 0.1 U/mL of thrombin were warmed to 37° C. and pipetted into a 96-well plate. For production of droplets, fibrinogen-DEX solutions with cell suspension were maintained at 37° C. and 4 μl per assay (unless otherwise noted) was pipetted directly into the PEG-thrombin media using a semi-automated repeater pipette (Repeater E3X; Eppendorf). Following dispensing of the DEX phase, the plates were placed in an ambient air incubator at 37° C. for 30 min to allow the thrombin to enzymatically crosslink the fibrinogen into a fibrin matrix (FIG. 6A). The PEG-enriched media was removed using a 12-channel micropipette and replaced with 100 μl of fully supplemented media in each well. When applicable, this media addition was supplemented with stimuli as detailed in example 17 below. For the duration of each experiment, assay plates were imaged every 2 hours at 4× with an automated cell culture monitoring system (Incucyte S3; Sartorius). As the assay proceeded, the fibroblasts progressively remodeled the fibrin scaffold as illustrated in FIG. 6C.
After each experiment, the final projected areas of the cell-ECM spheroids were determined from brightfield images taken at the final time point using a benchtop imaging system (2× objective; EVOS M7000; ThermoFisher). These images were then segmented through a process of pixel classification, thresholding, and morphological filtering in order to isolate the cell-ECM construct area from the background.
Pixel classification implemented Ilastic, a freely available image classification tool developed by the European Molecular Biology Laboratory. Ilastik's pixel classification utility implements a random forest classifier for quick and robust segmentation. In order to train the classifier, 10 characteristic images were selected to include different stages of ECM remodeling. In this step, each individual pixel is assigned a probability for belonging to layers for the background or the cell-ECM construct. Ilastik enables interactive training of the random forest classifier via user annotations of the training images. […]

[4] abbreviates: TGF-β1 stimulation compared to the control time series.

On to “TGF-β1: Human Recombinant TGF-β1 (Peprotech), pro-fibrotic, anti-fibrinolytic stimulus”, for which, in experiment [1], the “mean fluorescence intensity (MFI) of picrosirius red stained sections, collagen organization” value was “relative consistency in organization of collagen networks”. In experiment [2] (TGF-β1 dose), the “COL1A1 mRNA expression” value was “dose-dependent increase in COL1A1”. Moreover, in experiment [2] (TGF-β1 dose and time course), the “ACTA2 (aSMA) mRNA expression” value is on record as “increased expression for the highest concentration of TGF-β1”; the “SERPENE1 (PAI-1) mRNA expression” value was “significant time-dependent and dose-dependent increases in expression”. In experiment [2] (setting [4]), the “tPA (PLAT) mRNA expression” value is given as “relative downregulation” and the “uPA (PLAU) mRNA expression” value is given as “relative upregulation”. Also, the “MKI67 mRNA expression (proliferation marker)” value in experiment [2] (higher concentrations of TGF-β1) is listed as “significantly upregulated”. For the same substance, the “projected area of the final contracted cell-ECM spheroid” value in experiment [3] (TGF-β1 0, 0.5, 2 ng/mL, NHLF) is listed as “significant dose-dependent increase”. In addition, the “contraction of cell-ECM construct” value in experiment [3] (TGF-β1 10 ng/mL (highest concentration)) is given as “did not contract within the duration of the experiment”. Besides, the 50% contraction time entry in experiment [3] (TGF-β1 stimulation, kernel density estimates (FIG. 12A)) is “increases in both 50% contraction time and final assay area”.
